System: Sprague-Dawley rats
Test: Glucose lowering following oral administration to the fasted, normal rat
Type: in vivo
Settings: maximum lowering relative to saline controls, 10 mg/kg oral, 18-h fasted rats
Protocol: Compounds were administered by oral gavage to 18-h fasted, Sprague-Dawley rats (250-300 g, n=3/4/group) at a dose of 10 mg/kg. Phosphonic acids (active moieties) were prepared in deionized water, and the solution adjusted to neutrality with sodium hydroxide. Prodrugs were dissolved in polyethylene glycol (mw 400). Blood samples were taken via tail vein nick immediately prior to dosing and at 1 h intervals thereafter. Blood glucose was analyzed by means of a HemoCue glucose analyzer (HemoCue Inc., Mission Viejo, Calif.). The table below indicates the maximum % glucose lowering achieved relative to control animals dosed with saline.

Structure (SMILES)	inhibition in vivo at 10 mg/kg
CCOC(=O)C(C)(C)NP(=O)(NC(C)(C)C(=O)OCC)c1ccc(-c2nc(N)sc2C(=O)C(C)(C)CC)o1 [Compound 2.9]	24%
CCOC(=O)COP(=O)(N[C@@H](C)C(=O)OCC)c1ccc(-c2nc(N)sc2C(=O)C(C)(C)C)o1 (stereo partly drawn) [Compound 5.8, 2-amino-5-(2,2-dimethylpropionyl)-4-{2-[5-(N-((S)-1-ethoxy-carbonyl)ethyl)-O-(ethoxycarbonylmethyl)monophosphonamido]furanyl}-thiazole]	10%
CCOC(=O)C(C)(C)NP(=O)(NC(C)(C)C(=O)OCC)c1ccc(-c2nc(N)sc2C(=O)c2ccccc2C)o1 [Compound 2.15]	8%
CCOC(=O)C(C)(C)NP(=O)(OCC(=O)OCc1ccccc1)c1ccc(-c2nc(N)sc2C(=O)C(C)(C)C)o1 (stereo not drawn) [Compound 5.5]	20%
CC(=O)SC1CCCCC1OP(=O)(OC1CCCCC1SC(C)=O)c1ccc(-c2nc(N)sc2C(=O)C(C)(C)C)o1 (stereo not drawn) [Compound 6.8]	1%
CC(C)OC(=O)[C@H](C)NP(=O)(N[C@@H](C)C(=O)OC(C)C)c1ccc(-c2nc(N)sc2C(=O)c2cccc(F)c2)o1 [Compound 2.18, 2-amino-5-(3-fluorobenzoyl)-4-{[5-(N,N′-((S)-1-isopropyl-oxycarbonyl)ethyl)-phosphonamido]furan-2-yl}thiazole]	13%
CCOC(=O)[C@H](C)NP(=O)(N[C@@H](C)C(=O)OCC)c1ccc(-c2nc(N)sc2C(=O)C(CC)CC)o1 [Compound 2.24, 2-amino-5-(2-ethylbutyryl)-4-{[5-(N,N′-((S)-1′-ethyl-oxycarbonyl)ethyl)-phosphonamido]furan-2-yl}thiazole]	19%
Cc1ccccc1C(=O)c1sc(N)nc1-c1ccc(P(=O)(N[C@@H](C)C(=O)OC(C)C)N[C@@H](C)C(=O)OC(C)C)o1 [Compound 2.22, 2-amino-5-(2-methylbenzoyl)-4-{[5-(N,N′-((S)-1-isopropyl-oxycarbonyl)ethyl)-phosphonamido]furan-2-yl}thiazole]	9%
CCOC(=O)SCCOP(=O)(OCCSC(=O)OCC)c1ccc(-c2nc(N)sc2C(=O)C(C)(C)C)o1 [Compound 6.6]	4%
CC(C)(C)C(=O)c1sc(N)nc1-c1ccc(P(=O)(OCCSC(=O)c2ccccc2)OCCSC(=O)c2ccccc2)o1 [Compound 6.5]	9%
CCOC(=O)[C@H](C)NP(=O)(N[C@@H](C)C(=O)OCC)c1ccc(-c2nc(N)sc2C(=O)c2ccc(C)cc2)o1 [Compound 2.16, 2-amino-5-(4-methylbenzoyl)-4-{[5-(N,N′-((S)-1-ethyl-oxycarbonyl)ethyl)-phosphonamido]furan-2-yl}thiazole]	6%
CCOC(=O)[C@H](C)NP(=O)(N[C@@H](C)C(=O)OCC)c1ccc(-c2nc(N)sc2C(=O)c2cccc(F)c2)o1 [Compound 2.19, 2-amino-5-(3-fluorobenzoyl)-4-{[5-(N,N′-((S)-1-ethyloxy-carbonyl)ethyl)-phosphonamido]furan-2-yl}thiazole]	16%
CCC(CC)C(=O)c1sc(N)nc1-c1ccc(P(=O)(OCOC(=O)C(C)(C)C)OCOC(=O)C(C)(C)C)o1 [Compound 8.2, 2-amino-5-(2-ethylbutyryl)-4-{[5-(O,O′-bis(pivalyloxymethyl)-phosphono)]-furan-2-yl}thiazole]	10%
CCOC(=O)COP(=O)(N[C@@H](C)C(=O)OC(C)C)c1ccc(-c2nc(N)sc2C(=O)C(C)(C)C)o1 (stereo partly drawn) [Compound 5.6, 2-amino-5-(2,2-dimethylpropionyl)-4-{2-[5-(N-((S)-1-isopropyloxy-carbonyl)ethyl)-O-(ethoxycarbonylmethyl)monophosphonamido]furanyl}-thiazole]	4%
CCOC(=O)[C@H](C)NP(=O)(N[C@@H](C)C(=O)OCC)c1ccc(-c2nc(N)sc2C(=O)C(C)(CC)CC)o1 [Compound 2.7, 2-amino-5-(2-ethyl-2-methylbutyryl)-4-{[5-(N,N′-((S)-1-ethoxycar-bonyl)ethyl)phosphonamido]furan-2-yl}thiazole]	10%
CCC(CC)C(=O)c1sc(N)nc1-c1ccc(P(=O)(OCCSC(=O)c2ccccc2)OCCSC(=O)c2ccccc2)o1 [Compound 6.2]	3%
CCC(CC)C(=O)c1sc(N)nc1-c1ccc(P(=O)(N[C@@H](C)C(=O)OC(C)C)N[C@@H](C)C(=O)OC(C)C)o1 [Compound 2.26, 2-amino-5-(2-ethylbutyryl)-4-{[5-(N,N′-((S)-1-isopropyl-oxycarbonyl)ethyl)-phosphonamido]furan-2-yl}thiazole]	16%
CCOC(=O)OCOP(=O)(OCOC(=O)OCC)c1ccc(-c2nc(N)sc2C(=O)C(C)(C)C)o1 [Compound 8.3, 2-amino-5-(2,2-dimethylpropionyl)-4-{[5-(O,O′-bis(ethoxycarbonyl-oxymethyl)phosphono)]furan-2-yl}thiazole]	24%
CCC(C)(CC)C(=O)c1sc(N)nc1-c1ccc(P(=O)(N[C@@H](C)C(=O)OC(C)C)N[C@@H](C)C(=O)OC(C)C)o1 [Compound 2.11, 2-amino-5-(2-ethyl-2-methylbutyryl)-4-{[5-(N,N′-((S)-1-isopropyloxy-carbonyl)-ethyl)phosphonamido]furan-2-yl}thiazole]	13%
CCC(C)(C)C(=O)c1sc(N)nc1-c1ccc(P(=O)(NC(C)(C)C(=O)OC(C)C)NC(C)(C)C(=O)OC(C)C)o1 [Compound 2.8]	14%
CC(C)OC(=O)C(C)(C)NP(=O)(NC(C)(C)C(=O)OC(C)C)c1ccc(-c2nc(N)sc2C(=O)c2cccc(F)c2)o1 [Compound 2.28]	10%
CC(C)(C)C(=O)c1sc(N)nc1-c1ccc(P2(=O)OCC[C@@H](c3cccc(Cl)c3)O2)o1 (stereo partly drawn) [Compound 7.1, (cis)-2-amino-5-(2,2-dimethylpropionyl)-4-{[5-(4-(3-chlorophenyl)-2-oxo-1,3,2-phosphorinan-2-yl)]furan-2-yl}thiazole]	70%
CCOC(=O)C(C)(C)NP(=O)(Oc1ccc2c(c1)OCO2)c1ccc(-c2nc(N)sc2C(=O)C(C)(C)C)o1 (stereo not drawn) [Compound 5.3]	51%
CCOC(=O)C(C)(C)NP(=O)(NC(C)(C)C(=O)OCC)c1ccc(-c2nc(N)sc2C(=O)c2ccc(C)cc2)o1 [Compound 2.17]	10%
CCOC(=O)C(C)(C)NP(=O)(NC(C)(C)C(=O)OCC)c1ccc(-c2nc(N)sc2C(=O)C2CCC2)o1 [Compound 2.29]	12%
CCOC(=O)C(C)(C)NP(=O)(NC(C)(C)C(=O)OCC)c1ccc(-c2nc(N)sc2C(=O)c2cccc(F)c2)o1 [Compound 2.27]	6%
CCOC(=O)COP(=O)(NC(C)(C)C(=O)OCC)c1ccc(-c2nc(N)sc2C(=O)C2CCC2)o1 (stereo not drawn) [Compound 5.4]	16%
CCOC(=O)C(C)(C)NP(=O)(NC(C)(C)C(=O)OCC)c1ccc(-c2nc(N)sc2C(=O)C(CC)CC)o1 [Compound 2.23]	12%
Cc1ccccc1C(=O)c1sc(N)nc1-c1ccc(P(=O)(NC(C)(C)C(=O)OC(C)C)NC(C)(C)C(=O)OC(C)C)o1 [Compound 2.21]	9%
CCOC(=O)[C@H](C)NP(=O)(Oc1ccc2c(c1)OCO2)c1ccc(-c2nc(N)sc2C(=O)C(CC)CC)o1 (stereo partly drawn) [Compound 5.1]	8%

— patent publication US20080070868A1, “Novel Thiazole Inhibitors of Fructose 1,6-bisphosphatase” (Metabasis Therapeutics, Inc., priority 2004, published 2008)
